ChEMBL document CHEMBL1145395, “De novo design of selective antibiotic peptides by incorporation of unnatural amino acids” (J Med Chem, 2007)
The source made the active and inactive calls. The rule behind the calls is not given here.

What was measured:
Staphylococcus aureus = test: Antibacterial activity against methicillin/gentamicin/tetracycline resistant Staphylococcus aureus ATCC 33592 at 100 uM; format: functional, organism-based
Bacillus subtilis = test: Antibacterial activity against Bacillus subtilis ATCC 43223 at 100 uM; format: functional, organism-based

Structure (SMILES): CC[C@H](C)[C@H](NC(=O)[C@H](CCC(=O)O)NC(=O)CNC(=O)[C@@H](NC(=O)[C@H](Cc1ccccc1)NC(=O)[C@H](C)NC(=O)[C@H](CCCCN)NC(=O)CNC(=O)[C@H](Cc1ccccc1)NC(=O)[C@H](CCCCN)NC(=O)CNC(=O)[C@H](C)NC(=O)[C@H](CO)NC(=O)[C@H](Cc1cnc[nH]1)NC(=O)[C@H](CC(C)C)NC(=O)[C@H](Cc1ccccc1)NC(=O)[C@H](CCCCN)NC(=O)CNC(=O)[C@H](NC(=O)CN)[C@@H](C)CC)C(C)C)C(=O)N[C@@H](CCSC)C(=O)N[C@@H](CCCCN)C(=O)N[C@@H](CO)C(N)=O
- Activity (Staphylococcus aureus): inactive
- Activity (Bacillus subtilis): inactive
